These are literature values, as cited in patent US20050272698A1, “Liquid stable composition of oxazaphosphorine with mesna” (priority 2002, published 2005).

As to `O=P1(NCCCl)OCCCN1CCCl` (centres unmarked) [Ifosfamide, 3-(2-chloroethyl)-2-[(2-chloroethyl)amino]tetrahydro-2H-1,3,2-oxazaphosphorin-2-oxide], the solubility in water entry is recorded as “freely soluble in water”. For the molecule `O=S(=O)([O-])CCS.[Na+]` [Mesna, sodium-2-mercaptoethanesulphonate], the solubility in water result is recorded as “highly water soluble”.
